This note sets out measurements from patent US7709482B2, “Polycyclic heteroaryl substituted triazoles useful as Axl inhibitors” (Rigel Pharmaceuticals, Inc., priority 2006, dated 2010).

The assay deals with T1, Axl (Homo sapiens, UniProt P30530).
T1 construct: endogenous in cells; host or cells: HeLa cells
T1 sequence (P30530 26-894): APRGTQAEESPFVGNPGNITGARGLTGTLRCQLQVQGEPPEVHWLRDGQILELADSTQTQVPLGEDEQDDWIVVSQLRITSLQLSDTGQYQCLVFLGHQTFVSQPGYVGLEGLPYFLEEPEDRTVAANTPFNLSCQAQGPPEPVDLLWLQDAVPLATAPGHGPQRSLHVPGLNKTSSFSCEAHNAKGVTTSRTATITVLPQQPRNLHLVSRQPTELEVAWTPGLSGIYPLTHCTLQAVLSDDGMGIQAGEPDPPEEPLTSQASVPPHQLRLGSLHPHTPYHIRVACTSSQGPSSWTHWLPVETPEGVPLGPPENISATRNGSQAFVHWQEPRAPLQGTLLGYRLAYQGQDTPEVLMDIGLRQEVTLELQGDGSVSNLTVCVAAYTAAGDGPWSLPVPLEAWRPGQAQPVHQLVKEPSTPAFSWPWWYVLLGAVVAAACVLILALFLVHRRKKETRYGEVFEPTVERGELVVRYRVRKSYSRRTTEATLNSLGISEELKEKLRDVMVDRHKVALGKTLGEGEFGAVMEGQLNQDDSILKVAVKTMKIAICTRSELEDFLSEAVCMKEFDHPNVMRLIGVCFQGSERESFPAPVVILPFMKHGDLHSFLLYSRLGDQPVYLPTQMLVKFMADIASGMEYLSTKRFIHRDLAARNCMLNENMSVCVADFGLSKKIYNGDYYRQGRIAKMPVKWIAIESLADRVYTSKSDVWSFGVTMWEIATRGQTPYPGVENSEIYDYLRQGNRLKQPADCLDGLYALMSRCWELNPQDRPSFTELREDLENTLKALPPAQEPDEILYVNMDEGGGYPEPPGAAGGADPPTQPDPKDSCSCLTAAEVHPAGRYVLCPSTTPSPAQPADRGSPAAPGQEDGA
Put plainly: Phospho-Akt In-Cell Western Assay (inhibition of Axl activity after Axl-antibody cross-linking). Format: cell-based. The conditions noted are these: read-out: IC50. As for the experimental part:
The compounds of the invention were tested in the following assay for their ability to inhibit Axl activity.
Phospho-Akt In-Cell Western Assay
• Cell culture plate: 96 well assay plate (Corning 3610), white, clear bottom, tissue-culture treated. • Cells: Hela cells. • Starvation medium: For Axl stimulation: 0.5% FCS (fetal calf serum) in DMEM, plus Axl/Fc (extracellular domain of AXL fused to immunoglobulin Fc region) (R&D, 154-AL) 500 ng/mL. • For EGF (epidermal growth factor) stimulation: 0.5% FCS in DMEM (Dulbecco's modified Eagles medium). • Poly-L-Lysine 0.01% solution (the working solution): […], dilute In PBS (phosphate buffered saline). • Axl antibody cross-linking: • 1st: Mouse anti-Axl (R&D, MAB154). • 2nd: Biotin-SP-conjugated AffiniPure goat anti-mouse IgG (H+ L) (Jackson ImmunoResearch #115-065-003). • Fixing buffer: 4% formaldehyde in PBS. • Wash buffer: 0.1% TritonX-100 in PBS. • Quenching buffer: 3% H2O2, 0.1% Azide in wash buffer, Azide and hydrogen peroxide (H2O2) are added fresh. • Blocking buffer: 5% BSA in TBST (tris buffered saline plus 0.1% Tween 20). • Primary antibody: Rabbit anti-human Phospho-Akt antibody (Cell Signaling 9271): 1×250 diluted in blocking buffer. • Secondary antibody: HRP (horse radish peroxidase)-conjugated Goat anti-Rabbit secondary, stock solution: Jackson ImmunoResearch (Goat anti-Rabbit HRP, #111-035-144) 1:1 diluted in glycerol, store at −20° C. The working solution: 1×2000 dilution of stock in blocking buffer. • Chemiluminescent working solution (Pierce, 37030): SuperSignal ELISA (enzyme linked immunosorbant assay) Pico Chemiluminescent substrate. • Crystal Violet solution: Stock: 2.5% Crystal violet in methanol, filtered and kept at ambient temperature. The working solution: dilute the stock 1:20 with PBS immediately before use. • 10% SDS: working solution: 5% SDS (sodium dodecylsulfate), diluted in PBS Methods: Day 1:
A 96 well TC (tissue culture treated) plate was coated with 10 μg/mL poly-L-Lysine at 37° C. for 30 min, washed twice with PBS, and air-dried for 5 minutes before cells were added. Hela cells were seeded at 10,000 cells/well and the cells were starved in 100 μL starvation medium containing Axl/Fc for 24 hrs.
The cells were pre-treated with test compounds by adding 100 μL of 2× test compound to the starvation medium on the cells. The cells were incubated at 37° C. for 1 hr before stimulation.
The resulting mix was warmed to 37° C. 50 μL of 5×Axl 1st/2nd of antibody cluster was added to the cells and the cells were incubated at 37° C. for 5 min.
After 5 minutes stimulation, the plate was flicked to remove medium and the plate was tapped onto paper towels. Formaldehyde (4.0% in PBS, 100 μL) was added to fix the cells and the cells were incubated at ambient temperature for 20 min without shaking.
The cells were washed with a plate washer buffer to remove the formaldehyde solution. The plate was flicked to removed excess wash buffer and tapped onto paper towels. Quenching buffer (100 μL) was added to each well and the cells were incubated at ambient temperature for 20 minutes without shaking.
The cells were washed with a plate washer buffer to remove the quenching buffer. Blocking buffer (100 μL) was added and the cells were incubated at ambient temperature for at least an hour with gentle shaking.
The cells were washed with a plate washer buffer and diluted primary antibody (50 μL) was added to each well (blocking buffer was added to the negative control wells instead). The plates were incubated overnight at 4° C. with gentle shaking.
The wash buffer was removed, diluted secondary antibody (100 μL) was added, and the cells were incubated at ambient temperature for 1 hour with gentle shaking. During the incubation, the chemiluminescent reagent was brought to ambient temperature.
The secondary antibody was removed by washing the cells 1× with wash buffer, 1× with PBS by plate washer.

[1] abbreviates: Hela cells, phospho-Akt chemiluminescence normalized to relative cell number, compounds of formula (Ia), Table 1.
Setting [2] is: inhibition of Axl activity, Table 1, compounds of formula (Ia).
Where [3] appears, read: Hela cells, phospho-Akt chemiluminescence normalized to relative cell number, compounds of formula (Ib), Table 2.

Like-named read-outs stand apart in the source and are kept apart here.

With `CN1CCN(c2ccc(Nc3nc(N)n(-c4ncc5c(n4)-c4ccccc4CCC5)n3)cc2)CC1` [Compound 40, 1-(6,7-dihydro-5H-benzo[6,7]cyclohepta[1,2-d]pyrimidin-2-yl)-N^3-(4-(N-methylpiperazin-1-yl)phenyl)-1H-1,2,4-triazole-3,5-diamine], the IC50 under setting [1] lay within 1000 to 10000 nM.
Turning to `CN(C)CCNC1CCc2ccc(Nc3nc(N)n(-c4cc5c(nn4)-c4ccccc4CCC5)n3)cc2CC1` (centres unmarked) [Compound 235], under setting [2], the concentration for half-maximal inhibition (IC50) was less than 1000 nM.
Consider `Nc1nc(Nc2ccc3c(c2)CCC(NC2CC2)CC3)nn1-c1cc2c(nn1)-c1ccccc1CCC2` (centres unmarked) [Compound 225, 1-(6,7-dihydro-5H-benzo[6,7]cyclohepta[1,2-c]pyridazin-3-yl)-N^3-(7-cyclopropylamino-6,7,8,9-tetrahydro-5H-benzo[7]annulene-2-yl)-1H-1,2,4-triazole-3,5-diamine], for which the IC50 under setting [2] was less than 1000 nM.
With `CN(C)CCN1CCN(C(=O)c2cc3cc(Nc4nc(N)n(-c5cc6c(nn5)-c5ccccc5SCC6)n4)ccc3s2)CC1` [Compound 131, 1-(6,7-dihydro-5H-benzo[2,3]thiepino[4,5-c]pyridazin-3-yl)-N^3-(2-(1-(4-(2-(dimethylamino)ethyl)-piperazin-1-yl)oxomethyl)benzo[b]thio-phen-5-yl)-1H-1,2,4-triazole-3,5-diamine], under setting [2], the IC50 was in the range of 1000 to 10000 nM.
On the same count and under the same terms, under `Cc1csc2c(-n3nc(Nc4cnc5c(c4)CCC4(CC5)OCCO4)nc3N)nc(Cl)nc12` [Compound 241, 1-(2-chloro-7-methylthieno[3,2-d]pyrimidin-4-yl)-N^3-(5,6,8,9-tetrahydrospiro[cyclohepta[b]pyridine-7,2′-[1,3]dioxolane]-3-yl)-1H-1,2,4-triazole-3,5-diamine] stands less than 1000 nM.
On to `CC1CN(c2ccc(Nc3nc(N)n(-c4cc5c(nn4)-c4ccccc4CCC5)n3)cc2)CC(C)N1` (centres unmarked) [Compound 17, 1-(6,7-dihydro-5H-benzo[6,7]cyclohepta[1,2-c]pyridazin-3-yl)-N^3-(4-(3,5-dimethylpiperazin-1-yl)phenyl)-1H-1,2,4-triazole-3,5-diamine], for which, under setting [1], the IC50 is less than 1000 nM.
Consider `Nc1nc(Nc2ccc(N3CCC(N)CC3)c(F)c2)nn1-c1cc2c(nn1)-c1ccccc1CCC2` [Compound 87, 1-(6,7-dihydro-5H-benzo[6,7]cyclohepta[1,2-c]pyridazin-3-yl)-N^3-(3-fluoro-4-(4-aminopiperidin-1-yl)phenyl)-1H-1,2,4-triazole-3,5-diamine], for which the IC50 under setting [1] is less than 1000 nM.
As for `COCCNC(=O)c1ccc(Nc2nc(N)n(-c3cc4c(nn3)-c3ccccc3CCC4)n2)cc1` [Compound 20, 1-(6,7-dihydro-5H-benzo[6,7]cyclohepta[1,2-c]pyridazin-3-yl)-N^3-(4-((2-(methoxy)ethyl)amino-carbonyl)phenyl)-1H-1,2,4-triazole-3,5-diamine], under setting [1], the IC50 lay in the range of 1000 to 10000 nM.
Consider `CN1CCN(C2CCN(c3ccc(Nc4nc(N)n(-c5cc6c(nn5)-c5ccccc5OC65CCCC5)n4)cc3F)CC2)CC1` [Compound 175, 1-(spiro[chromeno[4,3-c]pyridazine-5,1′-cyclopentane]-3-yl)-N^3-(3-fluoro-4-(4-(4-methylpiperazin-1-yl)piperidin-1-yl)phenyl)-1H-1,2,4-triazole-3,5-diamine], for which, under setting [2], the IC50 was 10000 to 20000 nM.
Take `CCN(CC)C1CCN(c2ccc(Nc3nc(N)n(C4=Nc5ccccc5Sc5ccccc54)n3)cc2F)CC1` [Compound 51, 1-((Z)-dibenzo[b,f][1,4]thiazepin-11-yl)-N^3-(3-fluoro-4-(4-diethylaminopiperidin-1-yl)phenyl)-1H-1,2,4-triazole-3,5-diamine]: the IC50 under setting [1] lay within 1000 to 10000 nM.
On to `Nc1ccc(-c2ccc(Nc3nc(N)n(-c4cc5c(nn4)-c4ccccc4CCC5)n3)cn2)cn1` [Compound 94, 1-(6,7-dihydro-5H-benzo[6,7]cyclohepta[1,2-c]pyridazin-3-yl)-N^3-(6-(6-aminopyridin-3-yl)pyridine-3-yl)-1H-1,2,4-triazole-3,5-diamine], for which the IC50 under setting [1] is greater than 20000 nM.
For `CN1CCN(c2ccc(Nc3nc(N)n(-c4cc5c(nn4)-c4ccccc4CCC5)n3)cc2)CC1` [Compound 34, 1-(6,7-dihydro-5H-benzo[6,7]cyclohepta[1,2-c]pyridazin-3-yl)-N^3-(4-(4-methylpiperazin-1-yl)phenyl)-1H-1,2,4-triazole-3,5-diamine], the IC50 under setting [1] was less than 1000 nM.
For `Nc1nc(Nc2ccc(N3CCN(CC4CC4)CC3)c(F)c2)nn1-c1cc2c(nn1)-c1ccccc1CCC2` [Compound 214, 1-(6,7-dihydro-5H-benzo[6,7]cyclohepta[1,2-c]pyridazin-3-yl)-N^3-(3-fluoro-4-(4-cyclopropylmethylpiperazin-1-yl)phenyl)-1H-1,2,4-triazole-3,5-diamine], the IC50 under setting [2] was less than 1000 nM.
Consider `Nc1nc(Nc2ccc(N3CCC(N4CCCC4)CC3)c(F)c2)nn1-c1cc2c(nn1)-c1ccccc1SCC2` [Compound 119, 1-(6,7-dihydro-5H-benzo[2,3]thiepino[4,5-c]pyridazin-3-yl)-N^3-(3-fluoro-4-(4-pyrrolidin-1-ylpiperidinyl)phenyl)-1H-1,2,4-triazole-3,5-diamine], for which the concentration for half-maximal inhibition (IC50) under setting [1] is less than 1000 nM.
Turning to `Nc1nc(Nc2ccc(N3CCN(CC4CC4)CC3)c(F)c2)n(-c2cc3c(nn2)-c2ccccc2CCC3)n1` [Compound 244, 1-(6,7-dihydro-5H-benzo[6,7]cyclohepta[1,2-c]pyridazin-3-yl)-N^5-(3-fluoro-4-(4-cyclopropylmethylpiperazin-1-yl)phenyl)-1H-1,2,4-triazole-3,5-diamine], the IC50 under setting [3] is less than 1000 nM.
On to `COc1ccc2c(c1)CCCc1cc(-n3nc(Nc4ccc(N5CCC(N6CCCC6)CC5)c(F)c4)nc3N)nnc1-2` [Compound 52, 1-(6,7-dihydro-5H-9-methoxybenzo[6,7]cyclo-hepta[1,2-c]pyridazin-3-yl)-N^3-(3-fluoro-4-(4-(pyrrolidin-1-yl)piperidin-1-yl)phenyl)-1H-1,2,4-triazole-3,5-diamine], for which the 50% inhibitory concentration (IC50) under setting [1] was less than 1000 nM.
With `CN(C)Cc1nc2cc(Nc3nc(N)nn3-c3cc4c(nn3)-c3ccccc3CCC4)ccc2[nH]1` [Compound 159, 1-(6,7-dihydro-5H-benzo[6,7]cyclohepta[1,2-c]pyridazin-3-yl)-N^5-(2-((dimethylamino)methyl)-1H-benzo[d]imidazol-5-yl)-1H-1,2,4-triazole-3,5-diamine], under setting [3], the IC50 is greater than 20000 nM.

As usually defined, the IC50 is the concentration at which inhibition is half-maximal.
